Laboratory results published in US20250277247A1, “NUCLEIC ACID AMPLIFICATIONS” (priority 2012, published 2025).

Columns and labels:
[1] = tested on: purified influenza A viral RNA; format: biochemical; settings: 14 mM EGTA, 15 mM MgSO4, 100 mM Tris-Cl; about 20 minutes at room temperature, then 56° C., monitored 10 minutes; 0 or 100 copies
[2] = tested on: genomic DNA from Mycobacterium bovis BCG; format: biochemical, Mycobacterium bovis BCG (ATCC strain 190115); settings: 15 mM EGTA, 15 mM MgSO4; 15 minutes at room temperature, then 56° C., monitored 40 minutes; 20 or 200 copies vs no template
[3] = cited from earlier work
[4] = NEAR reaction mixture, buffer pH 8 at room temperature, temperature increased to 56° C.; cited from earlier work

O=C(O)CN(CCOCCOCCN(CC(=O)O)CC(=O)O)CC(=O)O [EGTA, Ethylene bis(oxyethylenenitrilo) tetraacetic acid]
Amplification (real-time fluorescence) [1]: Amplification was observed only in the reactions that included both EGTA and 100 copies of viral RNA
Amplification (real-time fluorescence) [2]: significant amplification was observed

O=S(=O)(O)CCN1CCN(CCS(=O)(=O)O)CC1 [PIPES, piperazine-N,N′-bis(2-ethanesulfonic acid)]
pKa (20° C.) ([3]; 20° C.): 6.80
pKa (25° C.) ([3]; 25° C.): 6.76
pKa (37° C.) ([3]; 37° C.): 6.66

NC(CO)(CO)CO [Tris, tris(hydroxymethyl)aminomethane]
pH of the temperature sensitive buffer [4]: < 7.4
